# According to ChEMBL document CHEMBL1150116, “Huperzine R, a novel 15-carbon Lycopodium alkaloid from Huperzia serrata” (J Nat Prod, 2002):
# Target: Acetylcholinesterase (Homo sapiens) (UniProt P22303)
# Experiment: Inhibition of AChE at 95 umol
# Sequence of Acetylcholinesterase (Homo sapiens) (P22303 whole entry): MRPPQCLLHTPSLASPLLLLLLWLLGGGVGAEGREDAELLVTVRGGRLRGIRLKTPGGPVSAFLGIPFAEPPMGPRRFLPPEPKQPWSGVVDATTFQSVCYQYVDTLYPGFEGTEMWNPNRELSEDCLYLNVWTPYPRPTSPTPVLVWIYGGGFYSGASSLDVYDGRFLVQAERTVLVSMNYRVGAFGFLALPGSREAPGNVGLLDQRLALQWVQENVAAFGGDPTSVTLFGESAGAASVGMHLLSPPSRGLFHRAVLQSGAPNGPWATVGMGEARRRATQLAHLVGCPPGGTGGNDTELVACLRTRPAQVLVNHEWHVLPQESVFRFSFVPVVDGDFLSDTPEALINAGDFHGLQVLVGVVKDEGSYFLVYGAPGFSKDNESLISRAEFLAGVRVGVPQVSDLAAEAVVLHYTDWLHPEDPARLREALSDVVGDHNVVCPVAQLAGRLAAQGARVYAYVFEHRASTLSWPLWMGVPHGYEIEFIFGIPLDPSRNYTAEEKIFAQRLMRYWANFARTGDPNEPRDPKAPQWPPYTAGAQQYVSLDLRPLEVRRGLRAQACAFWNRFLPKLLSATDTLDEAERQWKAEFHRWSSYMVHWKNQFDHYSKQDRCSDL
structure (smiles),measurement,value
C[C@H]1CC(=O)N2CCCC3=C(C1)C(=O)O[C@H]3CCC2,inhibition,27%
